Oligonucleotides are written 5' to 3', each unit as a sugar letter and its base; * is a phosphorothioate linkage, no mark a phosphodiester; rarer units and linkages stand in square brackets, end groups in braces. Plain capitals give the bases only. d = 2'-deoxy (DNA); r = 2'-OH (RNA)

This note sets out measurements from the OligoGym collection.
Also: test concentration or dose not given here.

Biological target in one data set: not listed separately
Kind of data set: reporter assay of Huesken 2005. The note with it: siRNA.
Consider “sense rUrCrCrCrCrUrGrCrCrUrGrUrCrArGrGrGrGrUdTdT / antisense rArCrCrCrCrUrGrArCrArGrGrCrArGrGrGrGrAdAdA”, for which the normalised inhibition (eCFP-eYFP dual reporter) came out at 42.2%.

Regarding “sense rCrCrArCrArUrGrGrUrGrUrGrGrArArUrCrUrGdTdT / antisense rCrArGrArUrUrCrCrArCrArCrCrArUrGrUrGrGdCdA”, the normalised inhibition (eCFP-eYFP dual reporter) came out at 40.2%.

For “sense rGrCrCrUrArCrGrGrGrArGrUrCrArArArGrGrUdTdT / antisense rArCrCrUrUrUrGrArCrUrCrCrCrGrUrArGrGrCdGdT”, the normalised inhibition (eCFP-eYFP dual reporter) was 91.5%.

With “sense rUrArCrUrCrUrUrGrCrUrCrUrCrUrGrGrArGrUdTdT / antisense rArCrUrCrCrArGrArGrArGrCrArArGrArGrUrAdGdA”, the normalised inhibition (eCFP-eYFP dual reporter) came out at 57.9%.

For another data set, the target named is UBE2V1. Kind of data set: reporter assay of Huesken 2005. The note with it: siRNA.
On to “sense rCrCrUrUrUrGrUrArArGrArUrUrUrGrUrArArCdTdT / antisense rGrUrUrArCrArArArUrCrUrUrArCrArArArGrGdGdG”, for which the normalised inhibition (eCFP-eYFP dual reporter) was found to be 63.8%.

For “sense rUrArGrCrUrGrGrGrGrUrCrUrArGrArArGrArUdTdT / antisense rArUrCrUrUrCrUrArGrArCrCrCrCrArGrCrUrAdAdC”, the normalised inhibition (eCFP-eYFP dual reporter) was 82.8%.

“sense rUrGrGrGrGrUrCrUrArGrArArGrArUrGrArCrGdTdT / antisense rCrGrUrCrArUrCrUrUrCrUrArGrArCrCrCrCrAdGdC” had a normalised inhibition (eCFP-eYFP dual reporter) of 38.8%.

“sense rUrArGrCrArArArArUrGrGrCrArGrArArUrUrCdTdT / antisense rGrArArUrUrCrUrGrCrCrArUrUrUrUrGrCrUrAdGdC” returned a normalised inhibition (eCFP-eYFP dual reporter) of 63%.

Regarding “sense rArGrArUrGrGrArCrArGrGrGrArUrGrArUrArAdTdT / antisense rUrUrArUrCrArUrCrCrCrUrGrUrCrCrArUrCrUdTdG”, the normalised inhibition (eCFP-eYFP dual reporter) came to 90%.

As for “sense rArGrArCrUrUrGrArArCrCrUrArGrArArArArUdTdT / antisense rArUrUrUrUrCrUrArGrGrUrUrCrArArGrUrCrUdTdC”, the normalised inhibition (eCFP-eYFP dual reporter) amounted to 71.4%.

Substance “sense rArArCrCrUrArGrArArArArUrUrUrCrArCrUrGdTdT / antisense rCrArGrUrGrArArArUrUrUrUrCrUrArGrGrUrUdCdA” registered a normalised inhibition (eCFP-eYFP dual reporter) of 49.4%.

With “sense rUrGrCrUrArGrCrArArArArUrGrGrCrArGrArAdTdT / antisense rUrUrCrUrGrCrCrArUrUrUrUrGrCrUrArGrCrAdCdT”, the normalised inhibition (eCFP-eYFP dual reporter) was found to be 71.4%.

In the case of “sense rCrArGrArArUrUrCrArUrArUrArGrCrArUrCrAdTdT / antisense rUrGrArUrGrCrUrArUrArUrGrArArUrUrCrUrGdCdC”, the normalised inhibition (eCFP-eYFP dual reporter) worked out at 90%.

Take “sense rCrCrUrArArUrGrArUrGrUrCrUrArArArGrArAdTdT / antisense rUrUrCrUrUrUrArGrArCrArUrCrArUrUrArGrGdCdG”: the normalised inhibition (eCFP-eYFP dual reporter) was found to be 95.1%.

Substance “sense rUrArCrArArGrArUrGrGrArCrArGrGrGrArUrGdTdT / antisense rCrArUrCrCrCrUrGrUrCrCrArUrCrUrUrGrUrAdAdG” registered a normalised inhibition (eCFP-eYFP dual reporter) of 52.7%.

In turn, “sense rCrArArUrUrUrCrCrGrArCrUrGrUrUrGrGrArAdTdT / antisense rUrUrCrCrArArCrArGrUrCrGrGrArArArUrUrGdCdG” gave a normalised inhibition (eCFP-eYFP dual reporter) of 95.3%.

“sense rGrCrCrArUrArUrCrArGrUrGrCrUrArGrCrArAdTdT / antisense rUrUrGrCrUrArGrCrArCrUrGrArUrArUrGrGrCdTdC” had a normalised inhibition (eCFP-eYFP dual reporter) of 92.1%.

For the substance “sense rArCrCrUrArGrArArArArUrUrUrCrArCrUrGrCdTdT / antisense rGrCrArGrUrGrArArArUrUrUrUrCrUrArGrGrUdTdC”, the normalised inhibition (eCFP-eYFP dual reporter) came to 36.5%.

In the case of “sense rCrArGrUrGrCrUrArGrCrArArArArUrGrGrCrAdTdT / antisense rUrGrCrCrArUrUrUrUrGrCrUrArGrCrArCrUrGdAdT”, the normalised inhibition (eCFP-eYFP dual reporter) is 87.5%.

As for “sense rArArUrUrCrArUrArUrArGrCrArUrCrArArArGdTdT / antisense rCrUrUrUrGrArUrGrCrUrArUrArUrGrArArUrUdCdT”, the normalised inhibition (eCFP-eYFP dual reporter) came to 70%.

For “sense rGrGrArGrUrArArArArGrUrCrCrCrUrCrGrCrAdTdT / antisense rUrGrCrGrArGrGrGrArCrUrUrUrUrArCrUrCrCdTdT”, the normalised inhibition (eCFP-eYFP dual reporter) was found to be 88.7%.

“sense rCrArUrArUrArGrCrArUrCrArArArGrUrUrGrUdTdT / antisense rArCrArArCrUrUrUrGrArUrGrCrUrArUrArUrGdAdA” returned a normalised inhibition (eCFP-eYFP dual reporter) of 77.7%.

The substance “sense rArGrArGrCrCrArUrArUrCrArGrUrGrCrUrArGdTdT / antisense rCrUrArGrCrArCrUrGrArUrArUrGrGrCrUrCrUdTdG” had a normalised inhibition (eCFP-eYFP dual reporter) of 90.3%.

“sense rArArCrCrGrArArUrArUrArCrArGrCrCrUrUrAdTdT / antisense rUrArArGrGrCrUrGrUrArUrArUrUrCrGrGrUrUdTdT” showed a normalised inhibition (eCFP-eYFP dual reporter) of 96.1%.

In the case of “sense rGrCrCrUrCrCrArArGrArArCrArArUrUrUrArUdTdT / antisense rArUrArArArUrUrGrUrUrCrUrUrGrGrArGrGrCdCdC”, the normalised inhibition (eCFP-eYFP dual reporter) came out at 76.5%.

Turning to “sense rArGrArArGrGrCrCrArGrArArArGrGrArGrUrAdTdT / antisense rUrArCrUrCrCrUrUrUrCrUrGrGrCrCrUrUrCrUdTdC”, the normalised inhibition (eCFP-eYFP dual reporter) was determined as 86.1%.

In the case of “sense rArGrArArArGrGrArGrUrArGrGrArGrArUrGrGdTdT / antisense rCrCrArUrCrUrCrCrUrArCrUrCrCrUrUrUrCrUdGdG”, the normalised inhibition (eCFP-eYFP dual reporter) was determined as 58.6%.

“sense rArArGrArGrCrCrArUrArUrCrArGrUrGrCrUrAdTdT / antisense rUrArGrCrArCrUrGrArUrArUrGrGrCrUrCrUrUdGdG”: the normalised inhibition (eCFP-eYFP dual reporter) was 84.4%.

On to “sense rArGrUrUrCrUrArArUrGrGrArGrUrGrGrUrGrGdTdT / antisense rCrCrArCrCrArCrUrCrCrArUrUrArGrArArCrUdAdT”, for which the normalised inhibition (eCFP-eYFP dual reporter) is 56.8%.

Regarding “sense rArGrGrArArGrArCrUrUrGrArArCrCrUrArGrAdTdT / antisense rUrCrUrArGrGrUrUrCrArArGrUrCrUrUrCrCrUdTdC”, the normalised inhibition (eCFP-eYFP dual reporter) is 78%.

For “sense rUrCrArUrArUrArGrCrArUrCrArArArGrUrUrGdTdT / antisense rCrArArCrUrUrUrGrArUrGrCrUrArUrArUrGrAdAdT”, the normalised inhibition (eCFP-eYFP dual reporter) turned out to be 49%.

“sense rUrGrGrGrCrCrUrCrCrArArGrArArCrArArUrUdTdT / antisense rArArUrUrGrUrUrCrUrUrGrGrArGrGrCrCrCrAdAdT” displayed a normalised inhibition (eCFP-eYFP dual reporter) of 57.1%.

Regarding “sense rGrUrArGrGrArGrArUrGrGrCrArCrArGrUrUrAdTdT / antisense rUrArArCrUrGrUrGrCrCrArUrCrUrCrCrUrArCdTdC”, the normalised inhibition (eCFP-eYFP dual reporter) was determined as 88.8%.

Substance “sense rUrCrArArArGrUrUrGrUrCrCrUrGrCrArArGrAdTdT / antisense rUrCrUrUrGrCrArGrGrArCrArArCrUrUrUrGrAdTdG” returned a normalised inhibition (eCFP-eYFP dual reporter) of 89.8%.

“sense rArGrUrArArArArGrUrCrCrCrUrCrGrCrArArUdTdT / antisense rArUrUrGrCrGrArGrGrGrArCrUrUrUrUrArCrUdCdC” had a normalised inhibition (eCFP-eYFP dual reporter) of 91%.

Turning to “sense rGrGrUrGrGrArCrCrCrArArGrArGrCrCrArUrAdTdT / antisense rUrArUrGrGrCrUrCrUrUrGrGrGrUrCrCrArCrCdAdC”, the normalised inhibition (eCFP-eYFP dual reporter) was 84.1%.

In the case of “sense rCrCrCrUrCrGrCrArArUrUrUrCrCrGrArCrUrGdTdT / antisense rCrArGrUrCrGrGrArArArUrUrGrCrGrArGrGrGdAdC”, the normalised inhibition (eCFP-eYFP dual reporter) is 84.5%.

Take “sense rArArUrGrGrArGrUrGrGrUrGrGrArCrCrCrArAdTdT / antisense rUrUrGrGrGrUrCrCrArCrCrArCrUrCrCrArUrUdAdG”: the normalised inhibition (eCFP-eYFP dual reporter) stood at 83.5%.

“sense rUrUrCrArCrUrGrCrArArArGrGrArGrUrArArAdTdT / antisense rUrUrUrArCrUrCrCrUrUrUrGrCrArGrUrGrArAdAdT”: the normalised inhibition (eCFP-eYFP dual reporter) turned out to be 81.4%.

The substance “sense rCrUrArGrArArArArUrUrUrCrArCrUrGrCrArAdTdT / antisense rUrUrGrCrArGrUrGrArArArUrUrUrUrCrUrArGdGdT” had a normalised inhibition (eCFP-eYFP dual reporter) of 96%.

“sense rGrUrCrUrArArArGrArArArArUrArUrGrArArAdTdT / antisense rUrUrUrCrArUrArUrUrUrUrCrUrUrUrArGrArCdAdT” came in with a normalised inhibition (eCFP-eYFP dual reporter) of 75.3%.

As for “sense rArGrGrArGrArUrGrGrCrArCrArGrUrUrArGrCdTdT / antisense rGrCrUrArArCrUrGrUrGrCrCrArUrCrUrCrCrUdAdC”, the normalised inhibition (eCFP-eYFP dual reporter) is 60.9%.

“sense rUrGrArArCrCrUrArGrArArArArUrUrUrCrArCdTdT / antisense rGrUrGrArArArUrUrUrUrCrUrArGrGrUrUrCrAdAdG” came in with a normalised inhibition (eCFP-eYFP dual reporter) of 43%.

Regarding “sense rGrArArGrArArCrUrCrGrArArGrArArGrGrCrCdTdT / antisense rGrGrCrCrUrUrCrUrUrCrGrArGrUrUrCrUrUrCdCdA”, the normalised inhibition (eCFP-eYFP dual reporter) amounted to 53.8%.

For the substance “sense rArGrUrCrCrCrUrCrGrCrArArUrUrUrCrCrGrAdTdT / antisense rUrCrGrGrArArArUrUrGrCrGrArGrGrGrArCrUdTdT”, the normalised inhibition (eCFP-eYFP dual reporter) was found to be 96%.

For “sense rUrUrArArArArUrArGrArArUrGrUrGrGrArCrCdTdT / antisense rGrGrUrCrCrArCrArUrUrCrUrArUrUrUrUrArAdGdG”, the normalised inhibition (eCFP-eYFP dual reporter) came to 38.8%.

Regarding “sense rUrCrGrCrArArUrUrUrCrCrGrArCrUrGrUrUrGdTdT / antisense rCrArArCrArGrUrCrGrGrArArArUrUrGrCrGrAdGdG”, the normalised inhibition (eCFP-eYFP dual reporter) was found to be 85.6%.

For the substance “sense rArGrCrUrGrGrGrGrUrCrUrArGrArArGrArUrGdTdT / antisense rCrArUrCrUrUrCrUrArGrArCrCrCrCrArGrCrUdAdA”, the normalised inhibition (eCFP-eYFP dual reporter) turned out to be 73%.

“sense rGrGrGrUrCrUrArGrArArGrArUrGrArCrGrArAdTdT / antisense rUrUrCrGrUrCrArUrCrUrUrCrUrArGrArCrCrCdCdA” showed a normalised inhibition (eCFP-eYFP dual reporter) of 96.3%.
